In US11697648B2, “Fused pyrimidine pyridinone compounds as JAK inhibitors” (THERAVANCE BIOPHARMA R&D IP, LLC, priority 2019, dated 2023):

Columns and labels:
[1] = test system: IL-2 stimulated STAT5 phosphorylation in Tall-1 human T cell line (JAK3); assay: Cellular JAK3 potency assay: inhibition of IL-2 stimulated pSTAT5 in Tall-1 T cells; assay type: cell-based; settings: IL-2 stimulated pSTAT5, Tall-1 T cells
Outline: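 Tall-1 cells, 45,000 per well, preincubated 1 hour with compound at 37 °C, then stimulated 30 minutes with IL-2 at 300 ng/ml final. pSTAT5 (Tyr694/699) in lysates quantified by AlphaLISA SureFire Ultra. pIC50 derived from inhibition curves, given as mean with SD.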

JAK2 = JAK2 (Homo sapiens (Human), UniProt O60674); assay: Biochemical JAK2 kinase assay (LanthaScreen)
Outline: (§1)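 GST-JAK + GFP-STAT1 peptide, HEPES pH 7.5/MgCl2/EGTA/Brij-35 buffer; cpd preincubation 1 h RT; ATP start, 1 h RT; stop with 10 mM EDTA + 2 nM Tb-anti-pSTAT1; TR-FRET 520/495. 4-parameter IC50 → pKi (Cheng-Prusoff).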

JAK3 = JAK3 (Homo sapiens (Human), UniProt P52333); assay: Biochemical JAK3 kinase assay (LanthaScreen); settings: for JAK3 (pKi)-JAK1 (pKi): selectivity JAK3 over JAK1, difference of pKi
Outline: as §1

Tyk2 = Tyk2 (Homo sapiens (Human), UniProt P29597); assay: Biochemical Tyk2 kinase assay (LanthaScreen)
Outline: as §1

Caco-2 cell monolayers = assay: Caco-2 permeation assay; assay type: in vitro ADME; settings: 5 μM, A-B direction, with Verapamil (25 μM)
Experimental: Assay 4: Caco-2 Permeation Assay
The Caco-2 permeation assay was performed to model the ability of test compounds to pass through the intestine and get into the blood stream after oral administration. The rate at which test compounds in solution permeate a cell monolayer designed to mimic the tight junction of human small intestinal monolayers was determined.
CacoReady 24-well transwell plates were obtained from ADMEcell (Alameda, Calif.). The compounds were evaluated at a concentration of 5 μM from 10 mM DMSO stock solutions in duplicate (n=2). The passive permeability of the compounds tested was evaluated using Caco-2 cell monolayers along with Verapamil (25 μM) to inhibit P-gp transport proteins in the apical to basolateral (A-B) direction. The experiment was conducted in a 37° C., 5% CO2 incubator. Caco-2 culture media consisted of standard filtered DMEM, FCS 10%, L-Glutamine 1% and PenStrep 1%. Basal assay plate was prepared by adding 750 μL of transport buffer to A-B wells. A CacoReady™ plate was prepared by removing the Caco-2 media from the apical wells and replacing with fresh transport media (200 μL repeated for a total of 3 washes). Blank media (200 μL) was then replaced with diluted compound for A-B wells. To begin the incubation, the basal plate was removed from the incubator and the apical section was added on top of it. Samples (40 μL) were collected from the apical and basal compartments for time zero (t0). Samples were collected again after 120 minutes (t120) from the apical and basal compartments. All samples were diluted and prepared for bioanalysis by LC-MS/MS. The permeation coefficient (Kp, mean A to B+ Verapamil Papparent) in cm/sec was calculated as dQ (flux)/(dt×Area×concentration).
In this assay, a Kp value less than about 5×10^−6 cm/sec is considered favorable to minimize systemic exposure and target the colon. A Kp value less than about 10×10^−6 cm/sec may also be sufficient to minimize systemic exposure and target the colon.

JAK1 = JAK1 (Homo sapiens (Human), UniProt P23458); assay: Biochemical JAK1 kinase assay (LanthaScreen)
Outline: as §1

Chain of JAK1 (P23458 whole entry): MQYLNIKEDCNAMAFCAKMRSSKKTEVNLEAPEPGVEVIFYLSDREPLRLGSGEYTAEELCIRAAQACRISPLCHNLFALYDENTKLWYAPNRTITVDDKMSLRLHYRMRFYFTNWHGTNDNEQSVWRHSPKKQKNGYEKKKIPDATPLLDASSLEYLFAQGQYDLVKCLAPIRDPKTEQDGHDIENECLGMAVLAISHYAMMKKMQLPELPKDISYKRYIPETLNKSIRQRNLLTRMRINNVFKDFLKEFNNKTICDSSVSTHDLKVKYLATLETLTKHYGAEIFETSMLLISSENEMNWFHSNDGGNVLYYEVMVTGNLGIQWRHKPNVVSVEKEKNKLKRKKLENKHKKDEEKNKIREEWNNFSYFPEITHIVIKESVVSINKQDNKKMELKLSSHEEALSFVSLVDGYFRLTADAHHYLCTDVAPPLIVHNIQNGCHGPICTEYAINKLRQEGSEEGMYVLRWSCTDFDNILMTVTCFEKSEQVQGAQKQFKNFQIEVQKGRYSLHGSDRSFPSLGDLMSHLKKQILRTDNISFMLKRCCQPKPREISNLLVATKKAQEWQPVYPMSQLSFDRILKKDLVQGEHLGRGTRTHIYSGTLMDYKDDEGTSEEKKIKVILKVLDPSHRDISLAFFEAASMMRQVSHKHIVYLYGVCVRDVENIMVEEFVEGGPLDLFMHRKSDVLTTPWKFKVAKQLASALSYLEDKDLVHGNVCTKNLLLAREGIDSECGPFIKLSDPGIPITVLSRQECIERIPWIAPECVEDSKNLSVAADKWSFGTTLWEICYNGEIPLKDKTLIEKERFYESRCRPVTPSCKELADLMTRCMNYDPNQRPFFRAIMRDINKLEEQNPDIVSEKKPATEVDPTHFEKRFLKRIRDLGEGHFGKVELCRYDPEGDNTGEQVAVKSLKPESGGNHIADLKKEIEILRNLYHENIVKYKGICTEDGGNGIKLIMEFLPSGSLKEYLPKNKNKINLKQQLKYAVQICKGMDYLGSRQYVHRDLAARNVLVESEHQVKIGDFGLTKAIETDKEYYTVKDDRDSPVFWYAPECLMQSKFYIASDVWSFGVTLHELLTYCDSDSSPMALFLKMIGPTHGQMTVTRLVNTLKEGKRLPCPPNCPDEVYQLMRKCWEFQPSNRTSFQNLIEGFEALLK
Chain of JAK2 (O60674 whole entry): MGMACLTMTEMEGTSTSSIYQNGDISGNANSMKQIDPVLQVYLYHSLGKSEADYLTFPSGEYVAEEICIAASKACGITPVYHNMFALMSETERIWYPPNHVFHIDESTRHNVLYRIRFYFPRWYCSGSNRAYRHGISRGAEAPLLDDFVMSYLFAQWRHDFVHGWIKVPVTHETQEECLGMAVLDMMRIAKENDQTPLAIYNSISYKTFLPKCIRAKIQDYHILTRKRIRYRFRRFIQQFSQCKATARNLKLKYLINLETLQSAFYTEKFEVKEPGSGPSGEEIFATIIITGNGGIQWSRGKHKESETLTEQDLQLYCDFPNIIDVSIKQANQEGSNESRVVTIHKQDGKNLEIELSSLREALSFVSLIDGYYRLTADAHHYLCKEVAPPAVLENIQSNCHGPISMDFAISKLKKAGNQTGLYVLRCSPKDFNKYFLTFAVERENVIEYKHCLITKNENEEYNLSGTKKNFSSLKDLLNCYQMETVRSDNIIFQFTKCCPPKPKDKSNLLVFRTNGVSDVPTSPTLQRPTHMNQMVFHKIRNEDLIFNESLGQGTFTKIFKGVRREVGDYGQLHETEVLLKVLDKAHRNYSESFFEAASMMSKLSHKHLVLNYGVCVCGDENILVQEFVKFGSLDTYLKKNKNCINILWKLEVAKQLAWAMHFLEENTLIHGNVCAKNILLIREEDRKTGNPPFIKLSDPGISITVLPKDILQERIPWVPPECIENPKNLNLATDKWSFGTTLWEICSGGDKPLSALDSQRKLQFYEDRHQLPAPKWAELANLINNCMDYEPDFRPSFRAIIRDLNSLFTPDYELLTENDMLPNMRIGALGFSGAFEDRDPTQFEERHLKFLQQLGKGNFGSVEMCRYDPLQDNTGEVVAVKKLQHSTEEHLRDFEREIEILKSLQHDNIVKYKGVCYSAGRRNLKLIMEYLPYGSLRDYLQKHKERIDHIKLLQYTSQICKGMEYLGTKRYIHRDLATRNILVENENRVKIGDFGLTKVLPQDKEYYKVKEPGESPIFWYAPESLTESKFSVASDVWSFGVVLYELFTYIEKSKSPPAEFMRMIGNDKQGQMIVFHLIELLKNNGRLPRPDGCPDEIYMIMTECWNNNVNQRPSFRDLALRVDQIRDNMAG
Chain of JAK3 (P52333 whole entry): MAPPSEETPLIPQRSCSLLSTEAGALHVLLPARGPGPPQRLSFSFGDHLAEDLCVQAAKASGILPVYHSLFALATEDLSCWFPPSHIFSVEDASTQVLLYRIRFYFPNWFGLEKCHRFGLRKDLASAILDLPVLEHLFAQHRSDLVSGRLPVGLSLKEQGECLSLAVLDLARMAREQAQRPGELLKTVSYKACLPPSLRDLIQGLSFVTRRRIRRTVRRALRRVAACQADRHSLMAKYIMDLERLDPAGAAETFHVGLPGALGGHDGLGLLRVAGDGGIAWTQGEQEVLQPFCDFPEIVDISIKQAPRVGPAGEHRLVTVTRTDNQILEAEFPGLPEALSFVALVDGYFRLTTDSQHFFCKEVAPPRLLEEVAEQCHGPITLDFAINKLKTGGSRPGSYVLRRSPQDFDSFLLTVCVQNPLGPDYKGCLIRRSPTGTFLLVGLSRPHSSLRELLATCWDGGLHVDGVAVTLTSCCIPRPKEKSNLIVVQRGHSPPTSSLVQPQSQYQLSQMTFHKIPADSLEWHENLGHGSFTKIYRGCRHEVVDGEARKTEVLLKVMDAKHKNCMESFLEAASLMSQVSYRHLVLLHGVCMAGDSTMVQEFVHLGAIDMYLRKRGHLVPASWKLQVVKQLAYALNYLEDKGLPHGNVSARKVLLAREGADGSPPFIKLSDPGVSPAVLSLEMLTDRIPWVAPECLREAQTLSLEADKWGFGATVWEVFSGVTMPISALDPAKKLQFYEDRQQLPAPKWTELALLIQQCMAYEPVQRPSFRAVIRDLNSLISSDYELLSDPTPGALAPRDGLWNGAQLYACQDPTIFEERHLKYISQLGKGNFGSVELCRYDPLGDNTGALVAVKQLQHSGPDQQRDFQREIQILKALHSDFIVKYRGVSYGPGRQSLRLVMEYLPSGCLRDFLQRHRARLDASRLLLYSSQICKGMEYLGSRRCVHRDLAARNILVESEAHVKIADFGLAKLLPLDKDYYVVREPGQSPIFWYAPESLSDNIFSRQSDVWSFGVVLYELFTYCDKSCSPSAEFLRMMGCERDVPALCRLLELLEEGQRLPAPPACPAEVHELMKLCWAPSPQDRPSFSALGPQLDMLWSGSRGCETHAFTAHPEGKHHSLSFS
Chain of Tyk2 (P29597 whole entry): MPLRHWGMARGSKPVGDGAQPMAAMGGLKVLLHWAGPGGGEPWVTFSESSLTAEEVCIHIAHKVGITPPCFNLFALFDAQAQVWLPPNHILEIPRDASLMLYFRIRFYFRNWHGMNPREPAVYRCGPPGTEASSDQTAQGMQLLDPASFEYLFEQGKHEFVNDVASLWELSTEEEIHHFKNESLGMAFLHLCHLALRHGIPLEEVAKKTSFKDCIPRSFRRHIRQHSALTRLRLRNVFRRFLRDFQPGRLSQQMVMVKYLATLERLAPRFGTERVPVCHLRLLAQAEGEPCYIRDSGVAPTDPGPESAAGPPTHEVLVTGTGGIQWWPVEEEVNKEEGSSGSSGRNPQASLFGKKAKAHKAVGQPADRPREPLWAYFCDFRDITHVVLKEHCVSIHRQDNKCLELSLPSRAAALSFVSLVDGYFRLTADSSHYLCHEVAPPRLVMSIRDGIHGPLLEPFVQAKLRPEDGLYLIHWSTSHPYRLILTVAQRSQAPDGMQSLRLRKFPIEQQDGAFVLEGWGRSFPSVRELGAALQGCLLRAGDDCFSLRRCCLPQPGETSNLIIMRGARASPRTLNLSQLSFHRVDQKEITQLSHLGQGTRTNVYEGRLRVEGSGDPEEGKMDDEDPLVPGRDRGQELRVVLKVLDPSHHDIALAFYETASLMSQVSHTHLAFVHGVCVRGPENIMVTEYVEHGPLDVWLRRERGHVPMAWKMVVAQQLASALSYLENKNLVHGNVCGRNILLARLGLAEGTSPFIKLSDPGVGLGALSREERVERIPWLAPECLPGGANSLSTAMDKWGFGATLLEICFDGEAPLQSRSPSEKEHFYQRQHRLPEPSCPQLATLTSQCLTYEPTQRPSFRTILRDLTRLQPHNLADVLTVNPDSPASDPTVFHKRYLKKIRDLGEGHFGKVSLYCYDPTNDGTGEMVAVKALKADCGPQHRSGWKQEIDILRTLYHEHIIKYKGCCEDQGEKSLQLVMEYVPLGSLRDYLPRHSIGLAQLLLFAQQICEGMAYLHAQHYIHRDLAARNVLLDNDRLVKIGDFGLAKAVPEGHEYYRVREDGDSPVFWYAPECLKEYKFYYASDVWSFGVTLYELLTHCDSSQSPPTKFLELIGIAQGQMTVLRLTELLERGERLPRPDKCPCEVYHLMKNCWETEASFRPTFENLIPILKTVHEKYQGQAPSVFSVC

Structure (SMILES)	Tall-1 (pIC50) [1]	JAK 2 (pKi) (JAK2)	JAK 3 (pKi) (JAK3)	JAK3 (pKi)-JAK1 (pKi) (JAK3)	Tyk 2 (pKi) (Tyk2)	Caco Kp (Caco-2 cell monolayers)	JAK 1 (pKi) (JAK1)
C=CC(=O)N1CC(CCn2c(=O)ccc3cnc(Nc4ccc(N5CCN(C(=O)C(F)(F)F)CC5)cc4)nc32)C1 [Example 109]	B (B represents a pC50 value between 6.7 (included) and 7.5 (IC50 between 200 nM and 32 nM))	E (E represents a pKi value of 7 or below (Ki of 100 nM or above))	B (B represents pKi value between 9 and 10 (Ki between 1 nM and 0.1 nM))	B (B represents a value of 2.5 to 3)	E (E represents a pKi value of 7 or below (Ki of 100 nM or above))	C (C represents a value between 10×10^−6 and 30×10^−6 cm/sec)	D (D represents a pKi value between 7 and 8 (Ki between 100 nM and 10 nM))
C=CC(=O)N1CC(CCn2c(=O)ccc3cnc(Nc4ccc(N5CCN(C(=O)CC#N)CC5)cc4)nc32)C1 [Example 72]	B (B represents a pC50 value between 6.7 (included) and 7.5 (IC50 between 200 nM and 32 nM))	E (E represents a pKi value of 7 or below (Ki of 100 nM or above))	B (B represents pKi value between 9 and 10 (Ki between 1 nM and 0.1 nM))	A (A represents a value of 3 or above)	E (E represents a pKi value of 7 or below (Ki of 100 nM or above))	A (A represents a value below 5×10^−6 cm/sec)	E (E represents a pKi value of 7 or below (Ki of 100 nM or above))
C=CC(=O)N1CC(CC)(CCn2c(=O)ccc3cnc(Nc4ccc(N5CCN(C(C)=O)CC5)cc4)nc32)C1 [Example 180]	B (B represents a pC50 value between 6.7 (included) and 7.5 (IC50 between 200 nM and 32 nM))	E (E represents a pKi value of 7 or below (Ki of 100 nM or above))	B (B represents pKi value between 9 and 10 (Ki between 1 nM and 0.1 nM))	A (A represents a value of 3 or above)	E (E represents a pKi value of 7 or below (Ki of 100 nM or above))	A (A represents a value below 5×10^−6 cm/sec)	E (E represents a pKi value of 7 or below (Ki of 100 nM or above))
C=CC(=O)N1CC(CCn2c(=O)ccc3cnc(Nc4ccc5cn[nH]c5c4)nc32)C1 [Example 83]	C (C represents a pIC50 value between 6 and 6.7 (IC50 between 1 μM and 200 nM))	E (E represents a pKi value of 7 or below (Ki of 100 nM or above))	B (B represents pKi value between 9 and 10 (Ki between 1 nM and 0.1 nM))	A (A represents a value of 3 or above)	E (E represents a pKi value of 7 or below (Ki of 100 nM or above))	A (A represents a value below 5×10^−6 cm/sec)	E (E represents a pKi value of 7 or below (Ki of 100 nM or above))
C=CC(=O)N1CCN(CCn2c(=O)ccc3cnc(Nc4ccc(N5CCN(S(=O)(=O)CCOC)CC5)cc4)nc32)[C@@H](CC)C1 [Example 191]	B (B represents a pC50 value between 6.7 (included) and 7.5 (IC50 between 200 nM and 32 nM))	E (E represents a pKi value of 7 or below (Ki of 100 nM or above))	A (A represents a pKi value≥10 (Ki≤0.1 nM))	A (A represents a value of 3 or above)	E (E represents a pKi value of 7 or below (Ki of 100 nM or above))	B (B represents a value between 5×10^−6 and 10×10^−6 cm/sec)	E (E represents a pKi value of 7 or below (Ki of 100 nM or above))
C=CC(=O)N1CCN(CCn2c(=O)ccc3cnc(Nc4cnn(C5CCN(C)CC5)c4)nc32)[C@@H](CC)C1 [Example 196]	B (B represents a pC50 value between 6.7 (included) and 7.5 (IC50 between 200 nM and 32 nM))	E (E represents a pKi value of 7 or below (Ki of 100 nM or above))	B (B represents pKi value between 9 and 10 (Ki between 1 nM and 0.1 nM))	A (A represents a value of 3 or above)	E (E represents a pKi value of 7 or below (Ki of 100 nM or above))	A (A represents a value below 5×10^−6 cm/sec)	E (E represents a pKi value of 7 or below (Ki of 100 nM or above))
C=CC(=O)N1CC(CCn2c(=O)ccc3cnc(Nc4ccc(N5CCN(CCOCC)CC5)cc4)nc32)C1 [Example 117]	A (A represents a pIC50 value≥7.5 (IC50≤32 nM))	E (E represents a pKi value of 7 or below (Ki of 100 nM or above))	A (A represents a pKi value≥10 (Ki≤0.1 nM))	A (A represents a value of 3 or above)	E (E represents a pKi value of 7 or below (Ki of 100 nM or above))	C (C represents a value between 10×10^−6 and 30×10^−6 cm/sec)	E (E represents a pKi value of 7 or below (Ki of 100 nM or above))
C=CC(=O)N1CCN(CCn2c(=O)ccc3cnc(Nc4ccc(CN5CCOCC5)cc4)nc32)CC1 [Example 80]	B (B represents a pC50 value between 6.7 (included) and 7.5 (IC50 between 200 nM and 32 nM))	E (E represents a pKi value of 7 or below (Ki of 100 nM or above))	B (B represents pKi value between 9 and 10 (Ki between 1 nM and 0.1 nM))	A (A represents a value of 3 or above)	E (E represents a pKi value of 7 or below (Ki of 100 nM or above))	C (C represents a value between 10×10^−6 and 30×10^−6 cm/sec)	E (E represents a pKi value of 7 or below (Ki of 100 nM or above))
C=CC(=O)N1CC(CCn2c(=O)ccc3cnc(Nc4cccc(OC)c4)nc32)C1 [Example 19]	C (C represents a pIC50 value between 6 and 6.7 (IC50 between 1 μM and 200 nM))	E (E represents a pKi value of 7 or below (Ki of 100 nM or above))	B (B represents pKi value between 9 and 10 (Ki between 1 nM and 0.1 nM))	A (A represents a value of 3 or above)	E (E represents a pKi value of 7 or below (Ki of 100 nM or above))	C (C represents a value between 10×10^−6 and 30×10^−6 cm/sec)	E (E represents a pKi value of 7 or below (Ki of 100 nM or above))
C=CC(=O)N1CCN(CCn2c(=O)ccc3cnc(Nc4ccc(N5CCN(C(C)=O)CC5)cc4)nc32)[C@@H](CC)C1 [Example 185]	B (B represents a pC50 value between 6.7 (included) and 7.5 (IC50 between 200 nM and 32 nM))	E (E represents a pKi value of 7 or below (Ki of 100 nM or above))	A (A represents a pKi value≥10 (Ki≤0.1 nM))	A (A represents a value of 3 or above)	E (E represents a pKi value of 7 or below (Ki of 100 nM or above))	B (B represents a value between 5×10^−6 and 10×10^−6 cm/sec)	E (E represents a pKi value of 7 or below (Ki of 100 nM or above))
C=CC(=O)N1CC(CCn2c(=O)ccc3cnc(Nc4ccc(N5CCN(S(=O)(=O)CC#N)CC5)cc4)nc32)C1 [Example 101]	B (B represents a pC50 value between 6.7 (included) and 7.5 (IC50 between 200 nM and 32 nM))	E (E represents a pKi value of 7 or below (Ki of 100 nM or above))	A (A represents a pKi value≥10 (Ki≤0.1 nM))	A (A represents a value of 3 or above)	E (E represents a pKi value of 7 or below (Ki of 100 nM or above))	A (A represents a value below 5×10^−6 cm/sec)	E (E represents a pKi value of 7 or below (Ki of 100 nM or above))
